The values that follow come from the supplement of paper PMC5770543.

Molecules are shown by their SMILES. ± gives the standard deviation. A value given as a limit tells only on which side of the number the result lay.

Assay [1] has as its system Plasmodium falciparum 3D7. Nature of the assay: EC50 growth inhibition (60 h, SYBR Green). Particulars: stage: ring-stage start.
In assay [2] the test system is Toxoplasma gondii RH tachyzoites. Nature of the assay: % growth inhibition vs DMSO (48 h luciferase); higher = more inhibition. The following applies: 10 µM.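 Further: tested in triplicate wells of 96-well plates on confluent HFF monolayers, with 1% DMSO wells as negative control in four replicates.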
The test system of assay [3] is Plasmodium falciparum 3D7. Description: % inhibition of schizont-to-ring transition vs DMSO; higher = more inhibition. The essentials: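 Schizont-to-ring transition inhibition compares new ring formation with that in vehicle controls. Synchronised P. falciparum schizonts (about 40–42 hours post-invasion, 1% parasitemia, 2.5% hematocrit, AlbuMAX-supplemented RPMI) were exposed to 1, 3 or 10 µM compound, after which rings were counted by Hoechst 33342 flow cytometry across three experiments.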

`COc1ccccc1CNC(=O)CCn1c(=O)[nH]c2ccccc2c1=O`: the EC50 growth inhibition in assay [1] came out at 663 nM. Also, the “% growth inhibition” value in assay [2] was 79.9 ± 5.7%. The “% inhibition of schizont-to-ring transition” value (“% inhibition” for short) in assay [3] (1 µM) is 8.85%; in assay [3] (3 µM), 11.5%; in assay [3] (10 µM), 18.6%.

In assay [1], `O=C(Nc1ccc(C23CC4CC(CC(c5ccccc5)(C4)C2)C3)cc1)c1cccs1` gave an EC50 growth inhibition of 7300 nM. Moreover, the “% growth inhibition” value in assay [2] is 76.8 ± 7.4%. Also, the entries for the “% inhibition” value in assay [3] (1 µM), in assay [3] (3 µM) and in assay [3] (10 µM) were 17.5%, 21.8% and 42.3%, respectively.

Regarding `FC(F)(F)c1cccc(Nc2nc(-c3ccccc3)nc3ncccc23)c1`, the “% growth inhibition” value in assay [2] came out at 51.1 ± 1.4%. Also, the “% inhibition” value in assay [3] (1 µM) was 24.9%; in assay [3] (3 µM), 33.8%; in assay [3] (10 µM), 42.3%.

For `O=C(CCc1ccccc1)c1ccccc1OCC(O)CN1CCCCC1` (stereo not drawn), in assay [1], the EC50 growth inhibition came to 912 nM. Moreover, the “% growth inhibition” value in assay [2] came to 66.1 ± 15%. Also, the “% inhibition” value in assay [3] (1 µM) turned out to be 19%; in assay [3] (3 µM), 44.6%; in assay [3] (10 µM), 73.3%.

For `OC1CCCCC1C1(NC(=S)Nc2ccccc2)CCCCC1` (stereo not drawn), the EC50 growth inhibition in assay [1] is 1510 nM. In addition, the “% growth inhibition” value in assay [2] was 64 ± 2.9%. For the same compound, the “% inhibition” value is 23.3% in assay [3] (1 µM), 45.7% in assay [3] (3 µM) and 53.4% in assay [3] (10 µM).

In turn, `COc1ccc(C(=O)C2CC2c2ccc(Cl)cc2)cc1` (stereo not drawn) showed an EC50 growth inhibition in assay [1] of 2700 nM. In addition, the “% growth inhibition” value in assay [2] worked out at 22 ± 8.6%. Also, the results for the “% inhibition” value in assay [3] (1 µM), in assay [3] (3 µM) and in assay [3] (10 µM) were 8.22%, 39.3% and 58.3%, respectively.

`CC(=O)c1sc(NC(=O)Nc2ccc(C)cc2C)nc1C`: in assay [1], the EC50 growth inhibition was 1780 nM. In assay [2], the “% growth inhibition” value was determined as 67.5 ± 3.4%. Besides, the “% inhibition” value is 10.5% in assay [3] (1 µM), 30.8% in assay [3] (3 µM) and 49.7% in assay [3] (10 µM).

Regarding `CCOC(=O)C1=C(C)N=c2sc(=Cc3cc(Cl)ccc3O)c(=O)n2C1c1ccc(OC)cc1` (stereo not drawn), the “% growth inhibition” value in assay [2] was 59.4 ± 6.4%. Besides, the results for the “% inhibition” value in assay [3] (1 µM), in assay [3] (3 µM) and in assay [3] (10 µM) were 0.526%, 46.2% and 61.3%, respectively.

Take `Cc1cc(C)cc(Nc2cc(C)nc3nc(C(F)(F)F)nn23)c1`: the EC50 growth inhibition in assay [1] was 56.8 nM. Also, the “% growth inhibition” value in assay [2] stood at 53.7 ± 4%. In addition, the “% inhibition” value turned out to be 46.6% in assay [3] (1 µM), 56.5% in assay [3] (3 µM) and 59.8% in assay [3] (10 µM).

Regarding `Cn1c(=O)n(C)c2cc(CNCCNc3ccnc4cc(Cl)ccc34)ccc21`, the EC50 growth inhibition in assay [1] is 64.8 nM. Further, the “% growth inhibition” value in assay [2] came to 25.7 ± 41%. Further, the entries for the “% inhibition” value in assay [3] (1 µM), in assay [3] (3 µM) and in assay [3] (10 µM) were 38.4%, 37.2% and 33.7%, respectively.

Consider `COc1ccc(-c2cc(=O)oc3c4c(ccc23)OCN(Cc2ccc(F)cc2)C4)cc1`, for which the EC50 growth inhibition in assay [1] was determined as 4110 nM. For the same compound, the “% growth inhibition” value in assay [2] was determined as 63.1 ± 3.1%. Also, the “% inhibition” value was under 0% in assay [3] (1 µM), 10% in assay [3] (3 µM) and 48.3% in assay [3] (10 µM).

Turning to `Oc1c2c(nc3cc(-c4ccccc4)nn13)CCCC2`, in assay [1], the EC50 growth inhibition was 3790 nM. Further, in assay [2], the “% growth inhibition” value stood at 26.5 ± 12%. Besides, the “% inhibition” value in assay [3] (1 µM) came out at 0.423%; in assay [3] (3 µM), 6.47%; in assay [3] (10 µM), 21.9%.

The compound `O=C(Nc1cccc(-c2nc3ccccc3[nH]2)c1)c1cccc(NC(=O)c2ccco2)c1` registered an EC50 growth inhibition in assay [1] of 6230 nM. Besides, the “% growth inhibition” value in assay [2] amounted to 48.6 ± 19%. In addition, the “% inhibition” value in assay [3] (1 µM) was found to be 28.5%; in assay [3] (3 µM), 37.6%; in assay [3] (10 µM) it was 52%.

In the case of `CC(C)(C)c1ccc2c(c1)CN(Cc1ccc(Cl)cc1)CO2`, the EC50 growth inhibition in assay [1] is 1120 nM. In addition, the “% growth inhibition” value in assay [2] was determined as 34.1 ± 8.2%. The “% inhibition” value in assay [3] (1 µM) stood at 16.8%; in assay [3] (3 µM), 49.9%; in assay [3] (10 µM), 66.2%.

In assay [1], `CCN(CC)CCNc1ccnc2cc3ccccc3cc12` registered an EC50 growth inhibition of 192 nM. Further, in assay [2], the “% growth inhibition” value worked out at 32.4 ± 7.3%. The figures for the “% inhibition” value in assay [3] (1 µM), in assay [3] (3 µM) and in assay [3] (10 µM) were 23.6%, 49% and 53.2%, respectively.

In assay [1], `COCCn1c(C)nc2ccccc2c1=O` returned an EC50 growth inhibition of 1520 nM. Further, in assay [2], the “% growth inhibition” value is 57.4 ± 3.5%. The entries for the “% inhibition” value in assay [3] (1 µM), in assay [3] (3 µM) and in assay [3] (10 µM) were 6.75%, 13.7% and 31.5%, respectively.

In assay [1], `Cc1ccc(-c2cc3c(SCC(=O)Nc4cc(C(F)(F)F)ccc4Cl)nccn3n2)cc1` yielded an EC50 growth inhibition of 2140 nM. Also, the “% growth inhibition” value in assay [2] was found to be 48.6 ± 19%. Further, the entries for the “% inhibition” value in assay [3] (1 µM), in assay [3] (3 µM) and in assay [3] (10 µM) were 23.9%, 24.5% and 30.8%, respectively.

Regarding `CN(C)c1ccc(-c2nc3cc(N)ccc3[nH]2)cc1`, in assay [1], the EC50 growth inhibition is 3020 nM. Also, the “% growth inhibition” value in assay [2] worked out at 40.4 ± 8.4%. For the same compound, the entries for the “% inhibition” value in assay [3] (1 µM), in assay [3] (3 µM) and in assay [3] (10 µM) were 5.79%, 18.4% and 66.7%, respectively.

In the case of `Cc1ccc2c(C)nc(Nc3nc(C)cc(-c4ccccc4)n3)nc2c1`, the EC50 growth inhibition in assay [1] was 6670 nM. For the same compound, the “% growth inhibition” value in assay [2] was 70.4 ± 25%. Besides, the “% inhibition” value stood at 17.7% in assay [3] (1 µM), 37.8% in assay [3] (3 µM) and 55.7% in assay [3] (10 µM).
